PubChem BioAssay (NCI)
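In this assay, cells in 96-well plates receive the compound at five concentrations for 48 hours. Endpoints are linearly interpolated between the surrounding concentrations. Here, GI50 denotes the concentration required for 50% inhibition of growth. TGI marks complete inhibition of growth.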

What was measured:
Assay in all cases: DTP human tumour cell line panel, 48 h
MDA-MB-468 breast = test system: MDA-MB-468 breast
UACC-62 melanoma = test system: UACC-62 melanoma
SF-268 CNS = test system: SF-268 CNS
SF-295 CNS = test system: SF-295 CNS
CCRF-CEM leukemia = test system: CCRF-CEM leukemia
MDA-MB-231 breast = test system: MDA-MB-231 breast
SW-620 colon = test system: SW-620 colon
OVCAR-4 ovarian = test system: OVCAR-4 ovarian
SK-MEL-5 melanoma = test system: SK-MEL-5 melanoma
HT29 colon = test system: HT29 colon
SNB-19 CNS = test system: SNB-19 CNS
SN12C renal = test system: SN12C renal
NCI-H460 lung = test system: NCI-H460 lung
CAKI-1 renal = test system: CAKI-1 renal
786-0 renal = test system: 786-0 renal
SR leukemia = test system: SR leukemia
DU-145 prostate = test system: DU-145 prostate
NCI-H226 lung = test system: NCI-H226 lung
HOP-92 NSCLC = test system: HOP-92 NSCLC
HS 578T breast = test system: HS 578T breast
SK-MEL-28 melanoma = test system: SK-MEL-28 melanoma
U251 CNS = test system: U251 CNS
HOP-62 NSCLC = test system: HOP-62 NSCLC
OVCAR-5 ovarian = test system: OVCAR-5 ovarian
MCF7 breast = test system: MCF7 breast
PC-3 prostate = test system: PC-3 prostate
K-562 leukemia = test system: K-562 leukemia
HCC-2998 colon = test system: HCC-2998 colon
EKVX NSCLC = test system: EKVX NSCLC

Compound `Cn1cc(-c2nc(N)nnc2-c2c[nH]c3ccc(F)cc23)c2cc(Br)cnc21` has a GI50 (MDA-MB-468 breast) of 27.2 nM, a TGI (MDA-MB-468 breast) of 124 nM and a GI50 (UACC-62 melanoma) of 32.3 nM. It also gave a TGI (UACC-62 melanoma) of 12800 nM, a GI50 (SF-268 CNS) of 1460 nM and a TGI (SF-268 CNS) of 18900 nM. It also gave a GI50 (SF-295 CNS) of 48.8 nM, a TGI (SF-295 CNS) of 12300 nM and a GI50 (CCRF-CEM leukemia) of 109 nM. The TGI (CCRF-CEM leukemia) was over 67100 nM, the GI50 (MDA-MB-231 breast) was 121 nM and the TGI (MDA-MB-231 breast) was 8260 nM. It also gave a GI50 (SW-620 colon) of 48.7 nM, a TGI (SW-620 colon) of 15200 nM and a GI50 (OVCAR-4 ovarian) of 3560 nM. For the same compound, the TGI (OVCAR-4 ovarian) was 33000 nM, the GI50 (SK-MEL-5 melanoma) was 40.2 nM and the TGI (SK-MEL-5 melanoma) was 1690 nM. It also gave a GI50 (HT29 colon) of 50.6 nM, a TGI (HT29 colon) of 615 nM and a GI50 (SNB-19 CNS) of 139 nM. It also gave a TGI (SNB-19 CNS) of 12700 nM, a GI50 (SN12C renal) of 204 nM and a TGI (SN12C renal) of 13800 nM. For the same compound, the GI50 (NCI-H460 lung) was 45.8 nM, the TGI (NCI-H460 lung) was 3770 nM and the GI50 (CAKI-1 renal) was 76.4 nM. For the same compound, the TGI (CAKI-1 renal) was 17000 nM, the GI50 (786-0 renal) was 145 nM and the TGI (786-0 renal) was 18000 nM. The GI50 (SR leukemia) was 38.8 nM, the TGI (SR leukemia) was over 54900 nM and the GI50 (DU-145 prostate) was 144 nM. For the same compound, the TGI (DU-145 prostate) was 14100 nM, the GI50 (NCI-H226 lung) was 109 nM and the TGI (NCI-H226 lung) was 12700 nM. For the same compound, the GI50 (HOP-92 NSCLC) was 5930 nM, the TGI (HOP-92 NSCLC) was 30700 nM and the GI50 (HS 578T breast) was 49.6 nM. For the same compound, the TGI (HS 578T breast) was 25800 nM, the GI50 (SK-MEL-28 melanoma) was 161 nM and the TGI (SK-MEL-28 melanoma) was 19500 nM. For the same compound, the GI50 (U251 CNS) was 57.4 nM, the TGI (U251 CNS) was 13000 nM and the GI50 (HOP-62 NSCLC) was 85.8 nM. The TGI (HOP-62 NSCLC) was 19200 nM, the GI50 (OVCAR-5 ovarian) was 217 nM and the TGI (OVCAR-5 ovarian) was 14600 nM. The GI50 (MCF7 breast) was 35.8 nM, the TGI (MCF7 breast) was 12300 nM and the GI50 (PC-3 prostate) was 94.9 nM. The TGI (PC-3 prostate) was 48900 nM, the GI50 (K-562 leukemia) was 39.4 nM and the TGI (K-562 leukemia) was over 100000 nM. It also gave a GI50 (HCC-2998 colon) of 156 nM, a TGI (HCC-2998 colon) of 5770 nM and a GI50 (EKVX NSCLC) of 279 nM. The TGI (EKVX NSCLC) was 17700 nM.
